According to patent publication US8703953B2, “Aryl ether-base kinase inhibitors” (Bristol-Myers Squibb Company, priority 2012, dated 2014):

Tests used:
AAK1 (full length human) = molecular target: T1, AAK1 (full length human) (Homo sapiens, UniProt Q2M2I8); assay: HEK281 Cell-Based Assay (HEK293F cells transfected with AAK1 and AP2M1; phospho-mu2 Western blot); settings: 3 h
T1 construct: HA; expressed in transfected cells; host or cells: HEK293F
Procedure: HEK293F cells were cultured in media containing DMEM (Gibco, cat. #11965), 10% FBS (SAFC Biosciences, cat. #12103C), 1× GPS (glutamine, penicillin and streptomycin). On day one, cells were plated on a 10 cm dish so that they are ˜80% confluent at time of transfection. Roughly 12 million cells were in a 10 cm dish at time of transfection. On day two, each dish was transfected with 48 ug DNA and 144 μl Lipofectamine 2000 (Invitrogen, cat. #11668-019). The DNA was comprised of a mixture (per 10 cm dish) containing 3 ug AAK1/HA/pIRES (full length human, NCBI accession no. NP_055726.2), 45 μg Flag/AP2MI/pcDNA (full length human), and 1.5 ml OPTI-MEM. The Lipofectamine 2000 is made up of a mixture (per 10 cm dish) containing 144 μl Lipofectamine 2000 and 1.5 ml OPTI-MEM. Each mixture was transferred to individual 15 ml tubes and incubated at RT for 5 minutes, and then the two mixes were combined and incubated at RT for 20 minutes. Growth media was then aspirated from each 10 cm plate and replaced with 10 ml of DMEM+10% FBS (no GPS). Finally, 3 ml DNA/Lipofectamine mix was added to each 10 cm dish and mix gently followed by incubate of plate overnight at 37° C. and 5% CO2.
On day three, compounds were diluted in 100% DMSO at 1000× final concentration, followed by 3-fold serial dilutions for a total of 5 concentrations tested. Four compounds were tested per 10 cm dish. One ul of each compound dilution was then pipetted into a deep-well, 96-well plate, followed by addition of 500 μl DMEM+0.5% FBS into each well for a 2× final concentration of each compound. Cells were resuspended in a 10 cm dish by simple pipetting (HEK293 cells come off the plate that easy at this point) and then transferred to a 50 ml conical tube and pelleted by centrifugation at 1000 rpm for 5 min. Cell pellets were then resuspended in 2.75 ml DMEM+0.5% FBS per 10 cm dish and 100 μl of cell suspension transferred into each well of 96-well TC plate. Finally, 100 μl of 2× compound diluted in DMEM+0.5% FBS was then added into wells containing cell suspension for a 1× final concentration. Plates were then incubated at 37° C. and 5% CO2 for 3 hours followed by transferring of cell suspensions from each well into 12-tube PCR strips. The PCR strips were spun in a tip rack at 1000 rpm for 5 minutes to pellet cells and media was then removed by pipetting without disturbing the cell pellet.
To prepare for Western Blot analysis, cell pellets were resuspend in 40 ul 1× LDS-PAGE sample buffer (Invitrogen, cat. #NP0008)+2× Halt phophatase and protease inhibitor cocktail (Thermo Scientific, cat. #1861284), followed by sonicating each with microtip sonicator set at 5 for 8-10 seconds. Five ul of 10× NuPage Sample Reducing Agent (with […]) was to each sample followed by heat denaturing at 70C for 10 min on PCR machine. A total of 10 μl per sample was loaded into each lane of a 4-20% Tris-Glycine Criterion 26-well gel (Biorad, cat. #345-0034) for the phospho-mu2 blot and 10 μl per lane in a 4-12% Bis-Tris (+MES buffer) NuPAGE 26-well gel (Invitrogen, cat. #WG1403BX10) for the mu2 blot. For controls, 2 ng of phospho-mu2 or 20 ng mu2/Flag proteins were loaded in the last well of each gel. After SDS-PAGE, samples on each gel were transferred to PVDF membrane using an iBlot and membranes were blocked for one hour in TBST+5% milk, followed by wash 3× for 5-10 min with TBST. Criterion gels were probed with rabbit anti-phospho-mu2 (1:5000; a rabbit polyclonal antibody produced by New England Peptide and affinity purified at Lexicon) in TBST+5% BSA, whereas, NuPAGE gels were probed with mouse anti-Flag (1:500; Sigma, cat. #F1804) in TBST+5% milk, and these primary antibodies were incubated overnight at 4° C. on a rocker. […]

GST-Xa-hAAK1 = molecular target: T2, GST-Xa-hAAK1 (Homo sapiens, UniProt Q2M2I8); assay: AAK1 Kinase Assay (Caliper LabChip, fluoresceinated peptide substrate); assay type: biochemical; settings: ATP 22 μM
T2 construct: made in house
Procedure: The assays were performed in U-bottom 384-well plates. The final assay volume was 30 μl prepared from 15 μl additions of enzyme and substrates (fluoresceinated peptide (5-FAM)-Aha-[…]-NH2 and ATP) and test compounds in assay buffer (10 mM Tris-HCL pH 7.4, 10 mM MgCl2, 0.01% Tween-20 and 1.0 mM DTT). The reactions were initiated by the combination of bacterially expressed, GST-Xa-hAAK1 with substrates and test compounds. The reactions were incubated at room temperature for 3 hours and terminated by adding 60 μl of 35 mM EDTA buffer to each sample. The reactions were analyzed on the Caliper LabChip 3000 (Caliper, Hopkinton, Mass.) by electrophoretic separation of the fluorescent substrate and phosphorylated product. […] The final concentration of reagents in the assays are ATP, 22 μM; (5-FAM)-Aha-[…]-NH2, 1.5 μM; GST-Xa-hAAK1, 3.5 nM; and DMSO, 1.6%. Dose response curves were generated to determine the concentration required inhibiting 50% of kinase activity (IC50). Compounds were dissolved at 10 mM in dimethylsulfoxide (DMSO) and evaluated at eleven concentrations. IC50 values were derived by non-linear regression analysis.

T2 sequence (Q2M2I8 whole entry): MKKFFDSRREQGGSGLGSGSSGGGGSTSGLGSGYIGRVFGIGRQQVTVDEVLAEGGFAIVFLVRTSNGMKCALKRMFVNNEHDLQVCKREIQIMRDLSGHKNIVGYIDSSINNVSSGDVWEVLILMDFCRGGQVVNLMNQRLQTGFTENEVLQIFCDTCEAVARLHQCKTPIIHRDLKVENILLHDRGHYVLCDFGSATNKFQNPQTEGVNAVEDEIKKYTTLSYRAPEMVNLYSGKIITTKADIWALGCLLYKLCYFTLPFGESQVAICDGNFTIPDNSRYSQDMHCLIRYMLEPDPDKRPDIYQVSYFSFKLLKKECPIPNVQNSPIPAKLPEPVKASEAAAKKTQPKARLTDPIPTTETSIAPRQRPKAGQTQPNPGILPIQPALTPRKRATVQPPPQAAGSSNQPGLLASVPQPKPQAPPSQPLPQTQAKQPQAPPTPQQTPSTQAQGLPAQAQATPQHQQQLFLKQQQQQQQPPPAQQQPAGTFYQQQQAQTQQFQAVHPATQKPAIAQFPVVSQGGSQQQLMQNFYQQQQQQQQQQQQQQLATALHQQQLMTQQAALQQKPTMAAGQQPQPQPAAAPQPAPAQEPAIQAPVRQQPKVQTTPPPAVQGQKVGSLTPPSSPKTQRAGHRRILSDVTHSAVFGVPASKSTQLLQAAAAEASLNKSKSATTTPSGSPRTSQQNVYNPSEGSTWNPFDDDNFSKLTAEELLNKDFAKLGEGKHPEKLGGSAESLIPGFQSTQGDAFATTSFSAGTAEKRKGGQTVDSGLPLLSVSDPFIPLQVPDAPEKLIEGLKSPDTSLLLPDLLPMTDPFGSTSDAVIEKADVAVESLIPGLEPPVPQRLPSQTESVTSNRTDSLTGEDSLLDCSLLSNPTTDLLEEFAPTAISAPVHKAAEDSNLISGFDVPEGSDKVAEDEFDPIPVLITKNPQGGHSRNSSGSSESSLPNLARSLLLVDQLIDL
T1 sequence (Q2M2I8 whole entry): as above

Structure (SMILES) | IC50 (AAK1 (full length human); listed as IC50 ranges) | IC50 (GST-Xa-hAAK1; listed as IC50 ranges) | IC50 (AAK1 (full length human); numeric values) | IC50 (GST-Xa-hAAK1; numeric values)
CC(=O)Nc1cc2c(cn1)COc1cc(OCC(N)CCC(F)(F)F)ccc1-2 (racemic) [Example 36, N-(8-((2-amino-5,5,5-trifluoropentyl)oxy)-5H-chromeno[3,4-c]pyridin-2-yl)acetamide] | 1 to 10 nM | 10 to 100 nM |  | 
CC(=O)Nc1cc2c(cn1)COc1cc(OCC(C)(N)CC(C)C)ccc1-2 (racemic) [Example 44, N-(8-(2-amino-2,4-dimethylpentyloxy)-5H-chromeno[3,4-c]pyridin-2-yl)acetamide] | 10 to 100 nM | 1 to 10 nM |  | 
CC(C)C[C@H](N)COc1ccc2c(c1)OC(C)c1cnccc1-2 (single isomer, unassigned) [Example 6a] |  |  | 25 nM | 27 nM
CC(C)C[C@H](N)COc1ccc2c(c1)OC(C)c1cnccc1-2 (single isomer, unassigned) [Example 6b] |  |  | 4.3 nM | 9.1 nM
CC(C)C[C@@H](N)COc1ccc2c(c1)OC(C)c1cnccc1-2 (single isomer, unassigned) [Example 7a] |  |  | > 300 nM | 81 nM
CC(C)C[C@H](N)COc1ccc2c(c1)OC(C1CC1)c1cnccc1-2 (single isomer, unassigned) [Example 8b] | 10 to 100 nM | 10 to 100 nM |  | 
CC(C)C[C@@H](N)COc1ccc2c(c1)OC(C1CC1)c1cnccc1-2 (single isomer, unassigned) [Example 9a] |  | 100 to 1000 nM | > 300 nM | 
CCC1Oc2cc(OC[C@@H](N)CC(C)C)ccc2-c2ccncc21 (single isomer, unassigned) [Example 10a] | 10 to 100 nM | 10 to 100 nM |  | 
CC(C)C[C@H](N)COc1ccc2c(c1)OCc1cnccc1-2 [Example 5, (S)-1-(5H-chromeno[3,4-c]pyridin-8-yloxy)-4-methylpentan-2-amine] |  |  | 8.4 nM | 3.3 nM
CC(C)C[C@H](N)COc1ccc2c(c1)oc(=O)c1cnccc12 [Example 11, (S)-8-(2-amino-4-methylpentyloxy)-5H-chromeno[3,4-c]pyridin-5-one] |  |  | 38 nM | 22 nM
CC(=O)Nc1nccc2c1COc1cc(OC[C@@H](N)CC(C)C)ccc1-2 [Example 12, (S)-N-(8-(2-amino-4-methylpentyloxy)-5H-chromeno[3,4-c]pyridin-4-yl)acetamide] | 10 to 100 nM | 10 to 100 nM |  | 
CC(C)C[C@H](N)COc1ccc2c(c1)OCc1c-2ccnc1N [Example 13, (S)-8-((2-amino-4-methylpentyl)oxy)-5H-chromeno[3,4-c]pyridin-4-amine] | 1 to 10 nM | 1 to 10 nM |  | 
CC(C)C[C@H](N)COc1cc2c(cc1Br)-c1ccncc1CO2 [Example 14, (S)-1-(9-bromo-5H-chromeno[3,4-c]pyridin-8-yloxy)-4-methylpentan-2-amine] | 1 to 10 nM | 1 to 10 nM |  | 
CC(C)C[C@H](N)COc1ccc2c(c1)OC(C)c1c-2ccnc1N (stereo partly drawn) [Example 15, 8-(((S)-2-amino-4-methylpentyl)oxy)-5-methyl-5H-chromeno[3,4-c]pyridin-4-amine] | 1 to 10 nM | 1 to 10 nM |  | 
CC(C)C[C@H](N)COc1ccc2c(c1)OCc1cncc(F)c1-2 [Example 16, (S)-1-((1-fluoro-5H-chromeno[3,4-c]pyridin-8-yl)oxy)-4-methylpentan-2-amine] | 1 to 10 nM | 1 to 10 nM |  | 
CC(=O)Nc1cc2c(cn1)COc1cc(OC[C@@H](N)CC(C)C)ccc1-2 [Example 18, (S)-N-(8-(2-amino-4-methylpentyloxy)-5H-chromeno[3,4-c]pyridin-2-yl)acetamide] | 10 to 100 nM | 1 to 10 nM |  | 
CC(=O)Nc1cc2c(cn1)COc1cc(OC[C@@H](N)CC(C)C)c(Cl)cc1-2 [Example 32, (S)-N-(8-((2-amino-4-methylpentyl)oxy)-9-chloro-5H-chromeno[3,4-c]pyridin-2-yl)acetamide] |  |  | > 100 nM | 66 nM
CC(C)C[C@H](N)COc1ccc2c(c1)OCc1cnc(N)cc1-2 [Example 33, (S)-8-(2-amino-4-methylpentyloxy)-5H-chromeno[3,4-c]pyridin-2-amine] | 10 to 100 nM | 10 to 100 nM |  | 
CC(=O)Nc1cc2c(cn1)COc1c-2ccc(OC[C@@H](N)CC(C)C)c1C [Example 35, (S)-N-(8-((2-amino-4-methylpentyl)oxy)-7-methyl-5H-chromeno[3,4-c]pyridin-2-yl)acetamide] | < 1 nM | < 1 nM |  | 
COc1c(OC[C@@H](N)CC(C)C)ccc2c1OCc1cnc(NC(C)=O)cc1-2 [Example 37, (S)-N-(8-((2-amino-4-methylpentyl)oxy)-7-methoxy-5H-chromeno[3,4-c]pyridin-2-yl)acetamide] | 1 to 10 nM | 10 to 100 nM |  | 
CC(=O)Nc1cc2c(cn1)COc1c-2ccc(OC[C@@H](N)CC(C)C)c1C(F)F [Example 38, (S)-N-(8-(2-amino-4-methylpentyloxy)-7-(difluoromethyl)-5H-chromeno[3,4-c]pyridin-2-yl)acetamide] | 1 to 10 nM | < 1 nM |  | 
CC(=O)Nc1cc2c(cn1)COc1c-2ccc(OC[C@@H](N)CC(C)C)c1F [Example 41, (S)-N-(8-((2-amino-4-methylpentyl)oxy)-7-fluoro-5H-chromeno[3,4-c]pyridin-2-yl)acetamide] |  |  | 2.1 nM | 0.3 nM
CC(C)C[C@H](N)COc1ccc2c(c1)OCc1cnc(NC(=O)C3CC3)cc1-2 [Example 42, (S)-N-(8-(2-amino-4-methylpentyloxy)-5H-chromeno[3,4-c]pyridin-2-yl)cyclopropanecarboxamide] |  |  | 2.1 nM | 0.5 nM
COC(=O)Nc1cc2c(cn1)COc1cc(OC[C@@H](N)CC(C)C)ccc1-2 [Example 43, (S)-methyl 8-(2-amino-4-methylpentyloxy)-5H-chromeno[3,4-c]pyridin-2-ylcarbamate] | 1 to 10 nM | 1 to 10 nM |  | 
